Data on 12 compounds can be found in patent US10111874B2, “Combination therapies for treatment of cancer” (Araxes Pharma LLC, priority 2014, dated 2018).

In this assay the target is T1, KRAS G12C 1-169, his-tagged protein, GDP-loaded (Homo sapiens, UniProt P01116, G12C).
T1 construct: KRAS G12C 1-169, his-tagged protein, GDP-loaded
The assay can be described thus: Biochemical assay: covalent binding to KRAS G12C analyzed by mass spectrometry. Also: test concentration or dose not given here.

The mark [1] stands for this setting: compounds 247-342, measured at 30 min.
The mark [2] stands for this setting: compounds 48-246, measured at 2 h.
[3] abbreviates: compounds 1-47, measured at 24 h.

T1 sequence (P01116 1-169 isoform P01116-2 G12C): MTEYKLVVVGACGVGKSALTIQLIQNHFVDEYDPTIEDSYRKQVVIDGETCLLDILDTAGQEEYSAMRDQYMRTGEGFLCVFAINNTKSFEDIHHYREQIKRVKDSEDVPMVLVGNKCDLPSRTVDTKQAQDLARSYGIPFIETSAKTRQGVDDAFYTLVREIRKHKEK

As for `C=CC(=O)N1CCN(c2cnnc3cc(-c4c(O)cccc4F)c(C(F)(F)F)cc23)CC1` [Compound I-279, 1-(4-(7-(2-fluoro-6-hydroxyphenyl)-6-(trifluoromethyl)cinnolin-4-yl)piperazin-1-yl)prop-2-en-1-one], under setting [1], the Binding % result is “+++ (+++indicates binding activity greater than 50% and up to 75%)”.
Regarding `C=CC(=O)N1CC(N2CCN(C(=O)CNc3cc(C4CC4)c(Cl)cc3O)CC2C)C1` (stereo not drawn) [II-60, 1-(3-(4-(2-((4-Chloro-5-cyclopropyl-2-hydroxyphenyl)amino)acetyl)-2-methylpiperazin-1-yl)azetidin-1-yl)prop-2-en-1-one], the Binding % entry (determined at 2 hrs) was “++ (++indicates binding activity greater than 20%)”.
For `C=CC(=O)N1CCN(c2ncnc3c(OC)c(-c4c(O)cccc4F)c(Cl)cc23)CC1` [Compound 313, 1-(4-(6-chloro-7-(2-fluoro-6-hydroxyphenyl)-8-methoxyquinazolin-4-yl)piperazin-1-yl)prop-2-en-1-one], under setting [1], the Binding % entry is “+++ (+++indicates binding activity greater than 50% and up to 75%)”.
Regarding `C=CC(=O)N1CC(N2CCN(C(=O)CNc3cc(C(C)C)c(Cl)cc3O)CC2)C1` [II-50, 1-(3-(4-(2-(4-Chloro-2-hydroxy-5-isopropylphenylamino)acetyl)piperazin-1-yl)azetidin-1-yl)prop-2-en-1-one], the Binding % result (determined at 2 hrs) is “++ (++indicates binding activity greater than 20%)”.
`C=CC(=O)N1CCN(c2ncnc3cc(-c4ccccc4CC)c(Cl)cc23)CC1` [Compound I-77, 1-(4-(6-chloro-7-(2-ethylphenyl)quinazolin-4-yl)piperazin-1-yl)prop-2-en-1-one]: the Binding % entry under setting [2] was “+++ (+++indicates binding activity greater than 50% and up to 75%)”.
As to `C=CC(=O)N1CCN(c2ncnc3cc(Cl)c(-c4ccc(Cl)c(Cl)c4)cc23)CC1` [Compound I-7, 1-(4-(7-chloro-6-(3,4-dichlorophenyl)quinazolin-4-yl)piperazin-1-yl)prop-2-en-1-one], the Binding % entry under setting [3] is “++++ (++++indicates binding activity greater than 75%)”.
As for `O=C(C#CCO)N1CCN(c2ncnc3cc(-c4ccc(F)cc4F)c(Cl)cc23)CC1` [Compound I-247, 1-(4-(6-chloro-7-(2,4-difluorophenyl)quinazolin-4-yl)piperazain-1-yl)-4-hydoxybut-2-yn-1-one], under setting [1], the Binding % entry is “+++ (+++indicates binding activity greater than 50% and up to 75%)”.
As to `C=CC(=O)N1CCN(c2nc(OCCN3CCOCC3)nc3c(F)c(-c4c(C)ccc5[nH]ncc45)c(Cl)cc23)CC1` [Compound 342, 1-(4-(6-chloro-8-fluoro-7-(5-methyl-1H-indazol-4-yl)-2-(2-morpholinoethoxy)quinazolin-4-yl)piperazin-1-yl)prop-2-en-1-one], under setting [1], the Binding % entry is on record as “++++ (++++indicates binding activity greater than 75%)”.
Consider `C=CC(=O)N1CCN(c2ncnc3cc(-c4cccc(-c5ccn[nH]5)c4)c(Cl)cc23)CC1` [Compound I-276, 1-(4-(7-(3-(1H-pyrazol-5-yl)phenyl)-6-chloroquinazolin-4-yl)piperazin-1-yl)prop-2-en-1-one], for which, under setting [1], the Binding % result is given as “+ (+indicates binding activity from 5% to 25%)”.
In the case of `C=CC(=O)N1CCN(c2ncnc3cc(-c4ccccc4C(F)(F)F)c(Cl)cc23)CC1CC#N` (stereo not drawn) [Compound I-125, 2-(1-acryloyl-4-(6-chloro-7-(2-(trifluoromethyl)phenyl)quinazolin-4-yl)piperazin-2-yl)acetonitrile], the Binding % entry under setting [2] is reported as “++++ (++++indicates binding activity greater than 75%)”.
Turning to `C=CC(=O)N1CCN(c2nccc3cc(Cl)c(-c4ccc(Cl)cc4)cc23)CC1` [Compound I-37, 1-(4-(6-chloro-7-(4-chlorophenyl)isoquinolin-1-yl)piperazin-1-yl)prop-2-en-1-one], under setting [3], the Binding % result was “++ (++indicates binding activity greater than 25% and up to 50%)”.
`C=CC(=O)N1CC(N2CCN(C(=O)CNc3cc(S(C)(=O)=O)ccc3O)CC2)C1` [II-34, 1-(3-(4-(2-(2-hydroxy-5-(methylsulfonyl)-phenylamino)acetyl)-piperazin-1-yl)azetidin-1-yl)prop-2-en-1-one]: the Binding % result (determined at 24 hrs) is “+ (+indicates binding activity from 5% to 15%)”.
